Laboratory results published in publication PMC3764137, “Sulphamoylated 2-Methoxyestradiol Analogues Induce Apoptosis in Adenocarcinoma Cell Lines” (PLoS ONE, 2013).

Tests used:
Format in all cases: cell-based, human
[1] = system: caspase 3; assay: Caspase 3 colorimetric assay in HeLa cells; settings: 0.5 μM, 24 h
Procedure: (§1) Possible activation of caspase 3, -6 and -8 was investigated by means of caspase 3, caspase 6 and FLICE/caspase 8 colorimetric kits, respectively. Cells (1,000,000) were seeded with an overnight attachment policy. After 24 h of exposure to 0.5 μM of the sulphamoylated 2ME2 analogues, cells were detached with trypsin and centrifuged at 13,000× g. Cells (500,000) were resuspended in 50 µl of chilled cell lysis buffer and incubated on ice for 10 min. Cells were centrifuged at 10,000×g for a min. Supernatant was transferred to a fresh tube and put on ice. After determination of the protein concentration using the bicinchoninic acid (BCA) protein assay (Thermo Fisher Scientific, Johannesburg, South Africa), 100 µg protein/50 µl cell lysis buffer was mixed with 50 µl 2X reaction buffer (containing 10 mM Dithiothreitol (DTT)). Ac-Asp-Glu-Val-Asp-p-nitroanilide (Ac-DEVD-pNA) (5 µl of 4 mM) (caspase-3-specific substrate), or 5 µl 4 mM […] (Ac-VEID-pNA) (caspase-6-specific substrate), or 5 µl 4 mM Ac-Ile-Glu-Thr-Asp-p-nitroanilide (Ac-IETD-pNA) (caspase-8-specific substrate) was added and the mixture was incubated at 37°C for 120 min (200 µM final concentration). Absorbance was determined at 405 nm on the ELx800 Universal Microplate Reader available from Bio-Tek Instruments Inc. (Vermont, United States of America).

[2] = system: caspase-6; assay: Caspase 6 colorimetric assay; settings: 0.5 μM, 24 h
Procedure: as §1

[3] = system: caspase-8; assay: FLICE/caspase 8 colorimetric assay; settings: 0.5 μM, 24 h
Procedure: as §1

[4] = system: caspase 3; assay: Caspase 3 colorimetric assay in MDA-MB-231 cells; settings: MDA-MB-231, 0.5 μM, 24 h
Procedure: as §1

[5] = system: HeLa cells; assay: Mitochondrial membrane potential assay (Mitocapture, flow cytometry); settings: 0.5 μM analogues (2-methoxyestradiol-bis-sulphamate 0.55 μM), 24 h
Procedure: Cells (500,000) were seeded with an overnight attachment policy. After 24 h of exposure to 0.5 μM of the sulphamoylated 2ME2 analogues, cells were detached using trypsin and centrifuged at 13,000×g.

SMILES	caspase 3 activity compared to vehicle-treated cells [1]	caspase-6 activity ratio compared to vehicle-treated cells [2]	caspase-8 activity increase compared to vehicle-treated cells [3]	caspase 3 activity [4]	cells with reduced mitochondrial potential [5]
CCc1cc2c(cc1OS(N)(=O)=O)CC[C@@H]1C2CC[C@]2(C)[C@@H](OS(N)(=O)=O)CC[C@@H]12 (stereo partly drawn) [EMBS, (8R, 13S, 14S, 17S)-2-ethyl-13-methyl-7,8,9, 11, 12,13, 14, 15, 16, 17-decahydro-6H-cyclopenta [a] phenanthrane-3, 17-diyl bis (sulphamate)]	more than doubled	3.1	2.6 fold	–	–
CCc1cc2c(cc1OS(N)(=O)=O)CC[C@@H]1[C@@H]2CC[C@]2(C)C(=O)C=C[C@@H]12 [ESE-15-one, 2-Ethyl-3-O-sulphamoyl-estra-1,3,5 (10) 15-tetraene-3-ol-17one]	more than doubled	–	1.7 fold	most affected	72%
